From patent US20060025566A1, “Macrocyclic modulators of the ghrelin receptor” (Tranzyme Pharma Inc., priority 2003, published 2006)
Where two headings read alike, the source gives them in different places.

Assays:
[1] = target: T1, human growth hormone secretagogue receptor (hGHS-R1a) (Homo sapiens, UniProt Q92847); assay: Competitive radioligand binding assay (ghrelin receptor), [125I]-ghrelin displacement on GHS-R/HEK 293 membranes
T1 construct: purchased PerkinElmer BioSignal #RBHGHSM, lot#1887; host or cells: HEK-293, stably transfected (membranes)
T1 sequence (Q92847 whole entry): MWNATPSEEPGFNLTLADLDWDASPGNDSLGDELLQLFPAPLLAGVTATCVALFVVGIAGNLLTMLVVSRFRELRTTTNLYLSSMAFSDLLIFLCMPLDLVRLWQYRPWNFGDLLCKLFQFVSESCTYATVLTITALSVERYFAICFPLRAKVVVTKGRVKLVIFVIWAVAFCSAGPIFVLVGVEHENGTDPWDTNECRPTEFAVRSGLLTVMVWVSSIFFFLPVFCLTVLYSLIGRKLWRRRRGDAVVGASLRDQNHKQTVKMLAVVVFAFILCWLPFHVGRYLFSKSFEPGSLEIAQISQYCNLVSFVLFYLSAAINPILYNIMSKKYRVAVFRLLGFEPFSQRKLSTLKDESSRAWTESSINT
Method: The competitive binding assay at the human growth hormone secretagogue receptor (hGHS-R1a) was carried out analogously to assays described in the literature.
Multiscreen Harvest plates-GF/C (Millipore, #MAHFC 1H60) • 4. […] Bottom seal (Millipore, #MATAH0P00) • 7. […] Binding Buffer: 25 mM Hepes (pH 7.4), 1 mM CaCl2, 5 mM MgCl2, 2.5 mM EDTA, 0.4% BSA Assay Volumes
Competition experiments were performed in a 300 μl filtration assay format. • 1. 220 μL of membranes diluted in binding buffer • 2. 40 μL of compound diluted in binding buffer • 3. […] Compound Handling
Compounds were provided frozen on dry ice at a stock concentration of 10 mM diluted in 100% DMSO and stored at −80° C. until the day of testing. On the test day, compounds were allowed to thaw at rt O/N and then diluted in assay buffer according to the desired test concentrations.
Plates were sealed with TopSeal-A, vortexed gently and incubated at rt for 30 min. The reaction was arrested by filtering samples through Multiscreen Harvest plates (pre-soaked in 0.5% polyethyleneimine) using a Tomtec Harvester, washed 9 times with 500 μL of cold 50 mM Tris-HCl (pH 7.4, 4° C.), and then plates were air-dried in a fumehood for 30 min. A bottom seal was applied to the plates prior to the addition of 25 μL of MicroScint-0 to each well. […] Results were expressed as counts per minute (cpm).
Data were analyzed by GraphPad Prism (GraphPad Software, San Diego, Calif.) using a variable slope non-linear regression analysis.
(§1) • 1. […] Key Aspects of Method • 1. […] Results

[2] = target: human ghrelin receptor (hGHS-R1a) (Homo sapiens, UniProt Q92847); assay: Aequorin functional assay (ghrelin receptor), CHO-K1 cells co-expressing Gα16 and aequorin; format: cell-based; conditions: functional (agonist) activity, standard method; TFA salts unless otherwise noted
human ghrelin receptor (hGHS-R1a), sequence (Q92847 whole entry): as above
Source text: Coelenterazine (Molecular Probes, Leiden, The Netherlands). […] Compound Handling
as §1

[3] = binding activity at the human ghrelin receptor, [125I]-ghrelin competition, GHS-R/HEK 293 membranes, read-out: Ki
[4] = binding activity, standard method, TFA salts unless otherwise noted, read-out: Ki
[5] = [125I]-ghrelin competition, GHS-R/HEK 293 membranes, Table 3A, read-out: Binding Activity at the Human Ghrelin Receptor
[6] = binding activity at the human ghrelin receptor, [125I]-ghrelin displacement, read-out: Ki
[7] = Table 3E, human ghrelin receptor, read-out: Ki

| SMILES | Ki [1, 3] [nM] | Ki [1, 4] [nM] | EC50 [2] [nM] | further results |
| --- | --- | --- | --- | --- |
| CCC(C)C1NCc2ccccc2CCCCNC(=O)C(Cc2ccccc2)NC(=O)C(C)N(C)C1=O (single isomer, unassigned) [194a] |  | 100 to 1000 | 100 to 1000 | Ki [1, 5]: 100 to 1000 nM |
| CC(C)[C@@H]1NCCOc2ccccc2CCCNC(=O)[C@@H](Cc2ccccc2)NC(=O)CN(C)C1=O [Compound 3] | 100 to 1000 | 100 to 1000 | 100 to 1000 |  |
| CC1C(=O)NC(Cc2ccc(Cl)cc2)C(=O)NCCCc2ccccc2OCCNC(C2CC2)C(=O)N1C (stereo not shown) [compound 299] |  | 0.1 to 10 | 1 to 100 | Ki [1, 6]: 0.1 to 10 nM |
| CCC[C@@H]1NCCOc2ccccc2CCCNC(=O)[C@@H](Cc2ccccc2)NC(=O)CN(CC)C1=O [compound 5] | 100 to 1000 |  | 100 to 1000 |  |
| CC(C)C[C@@H]1NCCOc2ccccc2/C=C/CNC(=O)C2(CCCC2)NC(=O)C2(CCCC2)NC1=O [compound 168] |  | 100 to 1000 | > 1000 | Ki [1, 5]: 100 to 1000 nM |
| C[C@@H]1C(=O)N[C@H](Cc2ccccc2)C(=O)NCCCc2ccccc2OCCN2CCCC[C@H]2C(=O)N1C [compound 226] |  | 10 to 100 | > 1000 |  |
| O=C1NC/C=C/c2ccccc2OCCN[C@@H](C2CC2)C(=O)NC2(CCCC2)C(=O)N[C@H]1Cc1cccc(Cl)c1 [compound 346] |  | 10 to 100 | 1 to 100 | Ki [1, 6]: 10 to 100 nM |
| CCC(C)C1NCCOc2ccccc2CCCNC(=O)C(Cc2ccc(O)cc2)NC(=O)C(C)N(C)C1=O (stereo not shown) [compound 445] |  | 10 to 100 | 1 to 100 | Ki ([1]; second table titled 3C (compounds 435-449), human ghrelin receptor, read-out: Ki): 10 to 100 nM |
| CC1C(=O)NC(Cc2ccc(C(F)(F)F)cc2)C(=O)NCCCc2ccccc2OCCNC(C2CC2)C(=O)N1C (stereo not shown) [compound 322] |  | 0.1 to 10 | 1 to 100 | Ki [1, 6]: 0.1 to 10 nM |
| CCC(C)C1NCCOc2ccccc2CCCNC(=O)C(Cc2ccccc2)NC(=O)C(CC)N(C)C1=O (stereo not shown) [compound 212] |  |  |  | Ki [1, 5]: 100 to 1000 nM |
| CO[C@H](C)[C@@H]1NCCOc2ccccc2CCCNC(=O)[C@@H](Cc2ccccc2)NC(=O)[C@@H](C)N(C)C1=O [compound 120] | 10 to 100 |  |  |  |
| COc1ccc(CC2NCCOc3ccccc3C=CCNC(=O)C(Cc3ccccc3)NC(=O)C3(CCCC3)NC2=O)cc1 (stereo not shown) [compound 127] | 100 to 1000 |  |  |  |
| CCC(C)[C@@H]1NCCOc2ccccc2CCCNC(=O)[C@@H](Cc2ccccc2)N2CC[C@H](C2=O)N(C)C1=O (stereo partly shown) |  |  |  | Ki [1, 7]: 10 to 100 nM |
| CCC[C@@H]1NCCOc2ccccc2CCCNC(=O)[C@@H](CCCN)NC(=O)CN(C)C1=O [compound 53] | > 10000 |  |  |  |
| CC(C)C1NCCOc2ccccc2CCCNC(=O)C(Cc2ccccc2)NC(=O)C2(CCNCC2)NC1=O (stereo not shown) [compound 207] |  |  |  | Ki [1, 5]: > 10000 nM |
| C[C@@H]1C(=O)N[C@H](Cc2ccc(Br)cc2)C(=O)NCCCc2ccccc2OCCN[C@@H](C2CC2)C(=O)N1C [compound 319] |  |  |  | Ki [1, 6]: 0.1 to 10 nM |
| CC(C)C[C@@H]1NCCOc2ccccc2C=CCNC(=O)[C@H](Cc2ccc(-c3ccccc3)cc2)NC(=O)C2(CCCC2)NC1=O (stereo in doubt) [compound 157] |  |  |  | Ki [1, 5]: 100 to 1000 nM |
| C[C@@H]1C(=O)N[C@H](Cc2ccc(Cl)cc2)C(=O)NCC=Cc2ccccc2OCCN[C@@H](C2CC2)C(=O)N1C (stereo in doubt) [compound 308] |  |  |  | Ki [1, 6]: 0.1 to 10 nM |

| SMILES | Ki [1, 3] [nM] | Ki [1, 4] [nM] | EC50 [2] [nM] | further results |
| --- | --- | --- | --- | --- |
| CCC[C@@H]1NCCOc2ccccc2CCCNC(=O)[C@@H](Cc2ccccc2)NC(=O)[C@H]2CCCN2C1=O |  |  |  | Ki [1, 7]: 100 to 1000 nM |
| CCC(C)C1NCCOc2ccccc2CCCNC(=O)C(Cc2ccccc2)NC(=O)C(C(C)CC)N(C)C1=O (stereo not shown) [150a] | 100 to 1000 |  |  |  |
| C[C@@H]1C(=O)N[C@H](Cc2ccc(F)cc2)C(=O)NCCCc2ccccc2OCCN[C@@H](CCN)C(=O)N1C [compound 338] |  |  |  | Ki [1, 6]: 100 to 1000 nM |
| CCC[C@@H]1NCCOc2ccccc2CCCNC(=O)[C@H](Cc2ccccc2)NC(=O)[C@H]2CCCN2C1=O |  |  |  | Ki [1, 7]: 1000 to 10000 nM |
| CCCC1NCc2csc(n2)CNC(=O)C(Cc2ccccc2)NC(=O)CN(C)C1=O (stereo not shown) [compound 86] | > 10000 |  |  |  |
| CC[C@H](C)[C@@H]1NCCOc2ccccc2CCCNC(=O)[C@@H](Cc2ccccc2)NC(=O)[C@@H](CO)NC1=O [compound 151] | > 1000 |  |  |  |
| CCCC1NCCC=CCCNC(=O)C(Cc2ccccc2)NC(=O)CN(C)C1=O (stereo not shown) [compound 83] | > 10000 |  |  |  |
| CCCC1NC(=O)C(C)N(C)C(=O)C(C(C)CC)NCCOc2ccccc2CCCNC1=O (stereo not shown) [compound 173] |  |  |  | Ki [1, 5]: 100 to 1000 nM |
| CCC[C@@H]1NCCOc2ccccc2CCCNC(=O)CNC(=O)CN(C)C1=O [compound 51] | > 10000 |  |  |  |
| CCC(C)[C@@H]1NCCOc2ccccc2CCCNC(=O)[C@@H](Cc2ccccc2)N2CC[C@@H](C2=O)N(C)C1=O (stereo partly shown) |  |  |  | Ki [1, 7]: 100 to 1000 nM |
| CC1C(=O)NC(Cc2ccc(F)cc2)C(=O)NCC=Cc2ccccc2OCCNC(C2CC2)C(=O)N1C (stereo not shown) [compound 401] |  |  |  | Ki [1, 6]: 0.1 to 10 nM |
| C[C@@H]1C(=O)N[C@H](Cc2ccccc2F)C(=O)NCCCc2ccccc2OCCN[C@@H](C2CC2)C(=O)N1C [compound 312] |  |  |  | Ki [1, 6]: 0.1 to 10 nM |
| CN1CC(=O)N[C@H](Cc2ccccc2)C(=O)NCCCc2ccccc2OCCN[C@@H](CCCCN)C1=O [compound 74] | 1000 to 10000 |  |  |  |
| COc1ccccc1C[C@@H]1NCCOc2ccccc2/C=C/CNC(=O)[C@H](Cc2cccc(Cl)c2)NC(=O)C2(CCCC2)NC1=O [compound 343] |  |  |  | Ki [1, 6]: 100 to 1000 nM |
| CCC(C)C1NCCOc2ccccc2C=CCNC(=O)C(COCc2ccccc2)NC(=O)C2(CCCC2)NC1=O (stereo not shown) [compound 347] |  |  |  | Ki [1, 6]: 100 to 1000 nM |
| CN1CC(=O)N[C@H](Cc2ccccc2)C(=O)NCCCc2ccccc2OCCN[C@@H](CCC(=O)O)C1=O [compound 73] | > 10000 |  |  |  |
| CCC(C)C1NCCOc2ccccc2CCCNC(=O)C(Cc2ccccc2)NC(=O)C(COC(C)(C)C)NC1=O (stereo not shown) [compound 215] |  |  |  | Ki [1, 5]: 1000 to 10000 nM |

Second part, led by results:

| Ki [1, 3] [nM] | Ki [1, 4] [nM] | EC50 [2] [nM] | SMILES | further results |
| --- | --- | --- | --- | --- |
| 100 to 1000 | 100 to 1000 | 100 to 1000 | CC(C)[C@@H]1NCCOc2ccccc2CCCNC(=O)[C@H](Cc2ccccc2)NC(=O)C2(CCCC2)NC1=O [Compound 9] |  |
| 0.1 to 10 | 0.1 to 10 | 1 to 100 | CC[C@H](C)[C@@H]1NCCOc2ccccc2CCCNC(=O)[C@@H](Cc2ccccc2Cl)NC(=O)[C@@H](C)N(C)C1=O [compound 23] |  |
| 10 to 100 | 10 to 100 | 1 to 100 | CC(C)C[C@@H]1NCCOc2ccccc2C=CCNC(=O)[C@H](Cc2ccc(F)cc2)NC(=O)C2(CCCC2)NC1=O (stereo in doubt) [compound 154] |  |
| 100 to 1000 | 10 to 100 | 100 to 1000 | CC(C)CC1NCCOc2ccccc2CCCNC(=O)C(Cc2ccccc2)NC(=O)C2(CCCC2)NC1=O (stereo not shown) [compound 113] |  |
| 0.1 to 10 | 0.1 to 10 | 1 to 100 | CC[C@H](C)[C@@H]1NCCOc2ccccc2CCCNC(=O)[C@@H](Cc2cccc3ccccc23)NC(=O)[C@@H](C)N(C)C1=O [compound 30] |  |
| 100 to 1000 | 10 to 100 | 100 to 1000 | CC(C)C[C@@H]1NCCOc2ccccc2CCCNC(=O)[C@H](Cc2ccccc2)NC(=O)C2(CC2)NC1=O [compound 111] |  |
| 10 to 100 | 10 to 100 | 1 to 100 | CC(C)C[C@@H]1NCCOc2ccccc2C=CCNC(=O)[C@H](Cc2ccccc2)NC(=O)C2(CCCC2)NC1=O (stereo in doubt) [Compound 8] |  |
| 100 to 1000 | 100 to 1000 | 1 to 100 | CCC[C@@H]1NCCOc2ccccc2CCCNC(=O)[C@@H](Cc2c[nH]c3ccccc23)NC(=O)CN(C)C1=O [Compound 6] |  |
| 100 to 1000 | 100 to 1000 | 100 to 1000 | CC[C@H](C)[C@@H]1NCCOc2ccccc2CCCNC(=O)[C@@H](Cc2ccccc2)NC(=O)[C@@H](C)NC1=O [compound 2] |  |
| > 10000 |  |  | CC(C)C[C@@H]1NCCOc2ccccc2C=CCNC(=O)[C@H](C(C)C)NC(=O)C2(CCCC2)NC1=O (stereo in doubt) [compound 46] |  |
| 10 to 100 |  |  | CC(C)C[C@@H]1NCCOc2ccccc2CCCNC(=O)[C@@H](Cc2ccccc2)NC(=O)[C@@H](C)N(C)C1=O [compound 118] |  |
| 100 to 1000 |  |  | CCC[C@@H]1NCCOc2ccccc2CCCNC(=O)[C@@H](Cc2ccccc2)NC(=O)C2(CCCC2)NC1=O [compound 67] |  |
| 100 to 1000 |  |  | CCCC[C@@H]1NCCOc2ccccc2CCCNC(=O)[C@H](Cc2ccccc2)NC(=O)C2(CCCC2)NC1=O [compound 101] |  |
| 1000 to 10000 |  |  | CC(C)C[C@@H]1NCCOc2ccccc2CCCNC(=O)[C@H](Cc2ccccc2)NC(=O)C(C)(C)NC1=O [compound 95] |  |
| 100 to 1000 |  |  | O=C1NC2(CCCC2)C(=O)N[C@@H](Cc2ccccc2)C(=O)NCCCc2ccccc2OCCN[C@H]1Cc1ccccc1 [compound 102] |  |
| 1000 to 10000 |  |  | CC(C)C[C@@H]1NCCOc2ccccc2CCCNC(=O)[C@H](Cc2c[nH]c3ccccc23)NC(=O)C2(CCCC2)NC1=O [compound 89] |  |
